Values of other authors, collected in patent US12292444B2, “Methods and compositions related to modified green fluorescent protein (GFP) with an embedded foreign peptide” (University of South Florida, priority 2020, dated 2025).

System: Gram-negative bacteria, such as Escherichia coli, Pseudomonas aeruginosa, and Salmonella typhimurium
Details: Wu 1999

Bactenecin: Antimicrobial peptide synthesized by neutrophils, used as substitute of the central α-helix in GFP (RLCRIVSYGVIRVCRR; listed as Aequorea victoria)
activity against Gram-negative bacteria: has an activity
